Measured values reported in patent publication US20210393553A1, “PHARMACEUTICAL COMBINATIONS FOR THE TREATMENT OF PAIN” (IMUNEKS FARMA ILAC SANAYI VE TICARET A.S., priority 2018, published 2021).
Several values for one entry are separate records, joined by “and”; a condition that tells them apart may be missing. Identical values can stand only once.

Key:
[1] = tested on: female Albino Wistar rats; test: Hot plate test (heat induced pain model); type: in vivo
rats = test: Tail Flick test; type: in vivo

COc1cccc(C2(O)CCCCC2CN(C)C)c1 (stereo not drawn) [Tramadol]
time of peak of activity in hot plate test ([1]; rat, in vivo): 30 min
hot plate test latency ([1]; rat, in vivo, po): 5.49 s and 6.90 s and 6.03 s and 6.19 s
tail flick results (tail flicking reaction time) (rats; rat, in vivo, po): 5.81 s

CC(C(=O)O)c1ccc(-c2ccccc2)c(F)c1 (stereo not drawn) [FBP, Flurbiprofen]
hot plate test latency ([1]; 15 min after oral gavage, hot plate 52.5° C., group average of 7 rats, cut-off 20 seconds, doses per Table 2): 4.87 s
hot plate test latency ([1]; 30 min after oral gavage, hot plate 52.5° C., group average of 7 rats, cut-off 20 seconds, doses per Table 2): 5.65 s
hot plate test latency ([1]; 45 min after oral gavage, hot plate 52.5° C., group average of 7 rats, cut-off 20 seconds, doses per Table 2): 5.15 s
hot plate test latency ([1]; 60 min after oral gavage, hot plate 52.5° C., group average of 7 rats, cut-off 20 seconds, doses per Table 2): 4.96 s
analgesic effect in the hot plate test, in words ([1]; comparison between groups / versus placebo): lowest analgesic effect compared to all the other groups except the placebo group
tail flick results (tail flicking reaction time) (rats; 1 hour after oral administration by gavage, same dosages as hot plate study, average of 3 measurements): 4.95 s
